# Results reported in ChEMBL document CHEMBL1201862, “PubChem BioAssay data set” (2004).
#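 Protocol summary: plate cells (96-well), add compound at 5 concentrations, incubate 48 h, interpolate endpoints linearly. Here, GI50 denotes the concentration required for 50% inhibition of growth.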 Activity calls are given as the source filed them. Cut-off read from the data, not from the text of the source: active = GI50 up to about 1.1 µM and inactive = higher.
# Assays:
# Assay in all cases: NCI anticancer screen, dose series, 48 h
# 786-0 = test system: 786-0
# A498 = test system: A498
# A549 = test system: A549
# ACHN = test system: ACHN
# CAKI-1 = test system: CAKI-1
# CCRF-CEM = test system: CCRF-CEM
# COLO 205 = test system: COLO 205
# DU-145 = test system: DU-145
# EKVX = test system: EKVX
# HCC 2998 = test system: HCC 2998
# HCT-116 = test system: HCT-116
# HCT-15 = test system: HCT-15
# HL-60 = test system: HL-60
# HOP-62 = test system: HOP-62
# HT-29 = test system: HT-29
# Hs-578T = test system: Hs-578T
# IGROV-1 = test system: IGROV-1
# K562 = test system: K562
# KM12 = test system: KM12
# LOX IMVI = test system: LOX IMVI
# M14 = test system: M14
# MCF7 = test system: MCF7
# MDA-MB-231 = test system: MDA-MB-231
# MDA-MB-435 = test system: MDA-MB-435
# MDA-N = test system: MDA-N
# MOLT-4 = test system: MOLT-4
# Malme-3M = test system: Malme-3M
# NCI-H226 = test system: NCI-H226
# NCI-H23 = test system: NCI-H23
# NCI-H460 = test system: NCI-H460
# NCI-H522 = test system: NCI-H522
# NCI/ADR-RES = test system: NCI/ADR-RES
# OVCAR-3 = test system: OVCAR-3
# OVCAR-4 = test system: OVCAR-4
# OVCAR-5 = test system: OVCAR-5
# OVCAR-8 = test system: OVCAR-8
# PC-3 = test system: PC-3
# RPMI-8226 = test system: RPMI-8226
# RXF 393 = test system: RXF 393
# SF-268 = test system: SF-268
# SF-295 = test system: SF-295
# SF-539 = test system: SF-539
# SK-MEL-28 = test system: SK-MEL-28
# SK-MEL-2 = test system: SK-MEL-2
# SK-MEL-5 = test system: SK-MEL-5
# SN12C = test system: SN12C
# SNB-19 = test system: SNB-19
# SNB-75 = test system: SNB-75
# SR = test system: SR
# SW-620 = test system: SW-620
# T47D = test system: T47D
# TK-10 = test system: TK-10
# UACC-257 = test system: UACC-257
# UACC-62 = test system: UACC-62
# UO-31 = test system: UO-31
# HOP-92 = test system: HOP-92
# SK-OV-3 = test system: SK-OV-3
# U-251 = test system: U-251
smiles,measurement,setting,value
COC1(OC)c2no[n+]([O-])c2C(OC)(OC)c2c1no[n+]2[O-],GI50,786-0,18.5 µM (inactive)
same,GI50,A498,19.1 µM (inactive)
same,GI50,A549,23.6 µM (inactive)
same,GI50,ACHN,19.5 µM (inactive)
same,GI50,CAKI-1,37.8 µM (inactive)
same,GI50,CCRF-CEM,4.19 µM (inactive)
same,GI50,COLO 205,12.9 µM (inactive)
same,GI50,DU-145,28.3 µM (inactive)
same,GI50,EKVX,14.7 µM (inactive)
same,GI50,HCC 2998,21 µM (inactive)
same,GI50,HCT-116,11.1 µM (inactive)
same,GI50,HCT-15,22 µM
same,GI50,HL-60,37.3 µM (inactive)
same,GI50,HOP-62,18.4 µM (inactive)
same,GI50,HT-29,17.3 µM (inactive)
same,GI50,Hs-578T,31.4 µM (inactive)
same,GI50,IGROV-1,21.7 µM (inactive)
same,GI50,K562,38.9 µM (inactive)
same,GI50,KM12,11.7 µM (inactive)
same,GI50,LOX IMVI,14.9 µM (inactive)
same,GI50,M14,12.3 µM (inactive)
same,GI50,MCF7,14.1 µM (inactive)
same,GI50,MDA-MB-231,16.4 µM (inactive)
same,GI50,MDA-MB-435,17.3 µM (inactive)
same,GI50,MDA-N,19.6 µM (inactive)
same,GI50,MOLT-4,12.4 µM (inactive)
same,GI50,Malme-3M,14.4 µM (inactive)
same,GI50,NCI-H226,24.5 µM (inactive)
same,GI50,NCI-H23,11.4 µM (inactive)
same,GI50,NCI-H460,26.7 µM (inactive)
same,GI50,NCI-H522,21.7 µM (inactive)
same,GI50,NCI/ADR-RES,26.6 µM (inactive)
same,GI50,OVCAR-3,7.85 µM (inactive)
same,GI50,OVCAR-4,21.9 µM (inactive)
same,GI50,OVCAR-5,21.3 µM (inactive)
same,GI50,OVCAR-8,13.4 µM (inactive)
same,GI50,PC-3,25.3 µM (inactive)
same,GI50,RPMI-8226,35.6 µM (inactive)
same,GI50,RXF 393,26.1 µM (inactive)
same,GI50,SF-268,25.7 µM (inactive)
same,GI50,SF-295,35.7 µM (inactive)
same,GI50,SF-539,18.3 µM (inactive)
same,GI50,SK-MEL-28,15.7 µM (inactive)
same,GI50,SK-MEL-2,21.1 µM (inactive)
same,GI50,SK-MEL-5,14.9 µM (inactive)
same,GI50,SN12C,20.4 µM (inactive)
same,GI50,SNB-19,24.5 µM (inactive)
same,GI50,SNB-75,18.3 µM (inactive)
same,GI50,SR,4.38 µM (inactive)
same,GI50,SW-620,17.9 µM (inactive)
same,GI50,T47D,21.8 µM (inactive)
same,GI50,TK-10,16.1 µM (inactive)
same,GI50,UACC-257,12.5 µM (inactive)
same,GI50,UACC-62,11.2 µM (inactive)
same,GI50,UO-31,28.2 µM (inactive)
C=CC1(c2ccc(Cl)c(Cl)c2)OCCO1,GI50,786-0,> 100 µM (inactive)
same,GI50,A549,> 100 µM (inactive)
same,GI50,ACHN,> 100 µM (inactive)
same,GI50,CCRF-CEM,> 100 µM (inactive)
same,GI50,COLO 205,> 100 µM (inactive)
same,GI50,DU-145,> 100 µM (inactive)
same,GI50,EKVX,> 100 µM (inactive)
same,GI50,HCC 2998,> 100 µM (inactive)
same,GI50,HCT-116,97.7 µM (inactive)
same,GI50,HCT-15,> 100 µM
same,GI50,HL-60,16.6 µM (inactive)
same,GI50,HOP-62,10.8 µM (inactive)
same,GI50,HOP-92,23.2 µM (inactive)
same,GI50,HT-29,88.5 µM (inactive)
same,GI50,Hs-578T,40.8 µM (inactive)
same,GI50,IGROV-1,> 100 µM (inactive)
same,GI50,K562,27.7 µM (inactive)
same,GI50,KM12,> 100 µM (inactive)
same,GI50,LOX IMVI,> 100 µM (inactive)
same,GI50,M14,> 100 µM (inactive)
same,GI50,MCF7,> 100 µM (inactive)
same,GI50,MDA-MB-231,1.83 µM (inactive)
same,GI50,MDA-MB-435,> 100 µM (inactive)
same,GI50,MDA-N,> 100 µM (inactive)
same,GI50,MOLT-4,> 100 µM (inactive)
same,GI50,Malme-3M,> 100 µM (inactive)
same,GI50,NCI-H226,71.8 µM (inactive)
same,GI50,NCI-H23,45.8 µM (inactive)
same,GI50,NCI-H460,> 100 µM (inactive)
same,GI50,NCI-H522,> 100 µM (inactive)
same,GI50,NCI/ADR-RES,> 100 µM (inactive)
same,GI50,OVCAR-3,> 100 µM (inactive)
same,GI50,OVCAR-4,> 100 µM (inactive)
same,GI50,OVCAR-5,> 100 µM (inactive)
same,GI50,OVCAR-8,> 100 µM (inactive)
same,GI50,PC-3,> 100 µM (inactive)
same,GI50,RPMI-8226,> 100 µM (inactive)
same,GI50,RXF 393,> 100 µM (inactive)
same,GI50,SF-268,> 100 µM (inactive)
same,GI50,SF-295,> 100 µM (inactive)
same,GI50,SK-MEL-28,> 100 µM (inactive)
same,GI50,SK-MEL-2,79.4 µM (inactive)
same,GI50,SK-MEL-5,> 100 µM (inactive)
same,GI50,SK-OV-3,> 100 µM (inactive)
same,GI50,SN12C,> 100 µM (inactive)
same,GI50,SNB-19,> 100 µM (inactive)
same,GI50,SNB-75,1.48 µM (inactive)
same,GI50,SR,55.8 µM (inactive)
same,GI50,SW-620,> 100 µM (inactive)
same,GI50,T47D,> 100 µM (inactive)
same,GI50,TK-10,> 100 µM (inactive)
same,GI50,U-251,> 100 µM (inactive)
same,GI50,UACC-257,> 100 µM (inactive)
same,GI50,UACC-62,> 100 µM (inactive)
same,GI50,UO-31,> 100 µM (inactive)
